“Also recorded” adds a separate entry of the source.
Key:
[1] = system: SIRT3; assay: Lysine acetylation and SIRT3 content of the mitochondrial proteome from treated BMPR2^R899X mice (Western blot); format: in vivo; conditions: 1 g/L 2HOBA in drinking water
Experimental: (§1) To assess mitochondrial respiration in cultured PMVECs, cells were seeded in growth media in a 96-well plate from Seahorse Biosciences (Bilerica, MA) at a seeding density of 50,000 live cells per well. The following day, cells were washed and placed in Seahorse Assay Media supplemented with specific substrates (1 gm/L glucose, 2 mM L-glutamine). After equilibration, oxygen consumption rates were measured on a Seahorse XFe96 analyzer using the Mito Stress Test protocol. For mitochondrial protein measurements, mitochondria were isolated from fresh murine liver tissue as previously described.^24
(§2) All animal studies were approved by the Vanderbilt IACUC. Male and female FVB/N mice were 10-16 weeks of age. BMPR2^R899X mice were generated and maintained as previously described.^24,25 For 2HOBA studies, 1 gm/L was administered in the drinking water, with water bottles protected from light and water changes every 2-3 days.
Because sirtuin expression and activity is tightly regulated by substrate availability, nutrient intake, physical activity, and interacting signaling pathways operating between organ systems, the role of SIRT3 in BMPR2-mediated PAH is best studied in a murine model system. […] The mitochondrial proteome was assessed for acetylation of lysine residues, with SIRT3 inactivation leading to lysine hyperacetylation. […]

[2] = system: BMPR2^R899X mice; assay: Glutamine synthetase in liver mitochondria and circulating glutamine in treated BMPR2^R899X mice; format: in vivo
Experimental: as §1, §2
(§3) Having shown that impaired BMPR2 function is associated with loss of SIRT3 function, and that this can be prevented with 2HOBA treatment to scavenge damaging lipid peroxidation products, the present inventors next wished to assess the in vivo metabolic dysfunction downstream from BMPR2 mutation, the relationship to PAH, and the effect of 2HOBA treatment. […]

[3] = system: WT mice; assay: Glutamine synthetase in liver mitochondria of treated WT mice; format: in vivo; conditions: 2HOBA treatment
Experimental: as §1, §2, §3

[4] = system: BMPR2^R899X mice; assay: Development of PAH in BMPR2^R899X mice (total pulmonary resistance, cardiac output by echocardiography, invasive RVSP); format: in vivo
Experimental: as §2
Echocardiography was performed on anesthetized mice (isoflurane anesthesia) to determine cardiac output. Right ventricular systolic pressure (RVSP) was invasively measured as described, using bromoethanol as the anesthetic.^24,25
All statistics were performed using GraphPad Prism 6.0 or Microsoft Excel unless otherwise specified. For animal experiments, sample sizes were chosen based upon previous experiments with approximately 80% of transgenic animals showing RVSP>30 mm Hg. Animals were randomly assigned to treatment groups by cage. For all measurements, investigators were blind to treatments and genotype until data analysis. Data were analyzed using two-tailed t-test, or two-way ANOVA with Tukey's post-test, as indicated. Significance was set at α<0.05 after correction for multiple comparisons.
Having shown that impaired BMPR2 function is associated with loss of SIRT3 function, and that this can be prevented with 2HOBA treatment to scavenge damaging lipid peroxidation products, the present inventors next wished to assess the in vivo metabolic dysfunction downstream from BMPR2 mutation, the relationship to PAH, and the effect of 2HOBA treatment. The present inventors hypothesized that 2HOBA would prevent the development of PAH in BMPR2^R899X mice and would have a beneficial modulatory effect on glutamine metabolism in vivo. Expression of the BMPR2^R899X allele was sufficient to drive upregulation of glutamine synthetase in skeletal muscle (FIG. 10) and in liver mitochondria (FIG. 7A) compared to WT.

[5] = Long-term safety, continuous dosing in mice; format: in vivo; conditions: over 12 months of continuous dosing in mice
[6] = pre-clinical animal studies; cited from earlier work
[7] = system: BMPR2 mutant PMVEC; assay: Extracellular glutamine to glucose flux ratio in BMPR2 mutant PMVEC; format: cell-based; conditions: low-dose chetomin
Experimental: (§4) The present inventors used previously characterized WT and BMPR2 mutant (BMPR2^R899X) pulmonary microvascular endothelial cells isolated from conditionally immortalized murine lines generated on the ImmortoMouse background,^20 and WT and BMPR2 mutant PMVECs from a parent immortalized human line stably expressing either a WT or BMPR2 mutant construct transfected into the parent line and maintained under selection with G418S. […]
(§5) Glucose and lactate levels were measured using the YSI 2300 Stat Glucose and Lactate Analyzer (Yellow Springs, OH). High performance liquid chromatography (HPLC) was used to quantify amino acid concentrations, with norvaline as an internal standard. […] Flux rates were calculated using the ETA software package.^22
(§6) The present inventors next wished to determine the molecular events downstream from BMPR2 mutation that contribute to glutamine reliance. […] Then WT and BMPR2 mutant PMVEC was treated with chetomin, a pharmacologic inhibitor of HIF, and assessed glucose and glutamine uptake by quantifying the extracellular flux ratio of glutamine to glucose. […]

[8] = system: WT PMVEC; assay: Extracellular glutamine to glucose flux ratio in WT PMVEC; format: cell-based; conditions: low-dose chetomin
Experimental: as §4, §5, §6

[9] = 2HOBA vs vehicle-treated mutants

Compound	total SIRT3 content in the mitochondria [1]	lysine acetylation in the mitochondrial proteome ([1]; Western diet, isolated mitochondria)	circulating (plasma) glutamine ([2]; 2HOBA-treated BMPR2^R899X mice compared to 2HOBA-treated WT mice)	glutamine synthetase in liver mitochondria ([2]; BMPR2^R899X mice, 2HOBA treatment)	glutamine synthetase in liver mitochondrial fraction [3]	development of pulmonary hypertension as measured by total pulmonary resistance ([4]; 2HOBA compared to vehicle-treated mice)	cardiac output [4, 9]	right ventricular systolic pressure (RVSP) [4, 9]	toxicity [5]	safety profile [6]	glutamine to glucose flux ratio [7]	glutamine to glucose flux ratio [8]
NCc1ccccc1O [2HOBA, 2-hydroxybenzylamine]	without affecting	significantly reduced; also recorded: normalized	significantly lower; also recorded: significantly reduces	reduced	not substantially	prevented the development of pulmonary hypertension; also recorded: to a level statistically indistinguishable from WT	modestly increased; also recorded: trends toward improved	decreased; also recorded: trends toward a decrease	no significant toxicity	excellent safety profile	–	–
CN1C(=O)[C@]2(Cc3cn([C@]45C[C@@]67SS[C@@](CO)(C(=O)N6[C@H]4Nc4ccccc45)N(C)C7=O)c4ccccc34)SS[C@@]1(CO)C(=O)N2C [chetomin]	–	–	–	–	–	–	–	–	–	–	significantly reduced	no effect; also recorded: essentially unaffected

From US20250381155A1, “USE OF 2-HYDROXYBENZYLAMINE IN THE TREATMENT AND PREVENTION OF PULMONARY HYPERTENSION” (Vanderbilt University, priority 2016, published 2025)
